Our source for the T/C values is PubChem BioAssay AID248 (DTP/NCI, 2004).

This test deals with L1210 leukemia ip in BDF1 mice, survival T/C. The test is described as follows: NCI In Vivo Anticancer Drug Screen. Data for tumor model L1210 Leukemia (intraperitoneal) in B6D2F1 (BDF1) mice. Conditions: endpoint: mean survival time, higher = longer survival. A digest of the protocol: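 Mice bearing the transplanted tumor received compound or vehicle. Survival of the treated group was divided by that of the vehicle-treated control group to give the ratio.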

[1] abbreviates: dose: 100.0 mg/kg/injection, schedule: Q01DX009 (ip), vehicle: saline with Tween-80.
[2] abbreviates: dose: 200.0 mg/kg/injection, schedule: Q01DX009 (ip), vehicle: saline with Tween-80.
Setting [3] is: dose: 400.0 mg/kg/injection, schedule: Q04DX003 (ip), vehicle: saline with Tween-80.
The mark [4] stands for this setting: dose: 100.0 mg/kg/injection, schedule: Q04DX003 (ip), vehicle: saline with Tween-80.
Where [5] appears, read: dose: 200.0 mg/kg/injection, schedule: Q04DX003 (ip), vehicle: saline with Tween-80.
Setting [6] is: dose: 100.0 mg/kg/injection, schedule: Q04DX003 (ip), vehicle: saline.
[7] abbreviates: dose: 200.0 mg/kg/injection, schedule: Q04DX003 (ip), vehicle: saline.
Where [8] appears, read: dose: 50.0 mg/kg/injection, schedule: Q04DX002 (ip), vehicle: saline.
Setting [9] is: dose: 100.0 mg/kg/injection, schedule: Q04DX002 (ip), vehicle: saline.
[10] abbreviates: dose: 6.25 mg/kg/injection, schedule: Q04DX003 (ip), vehicle: saline.
Setting [11] is: dose: 12.5 mg/kg/injection, schedule: Q04DX003 (ip), vehicle: saline.
[12] abbreviates: dose: 25.0 mg/kg/injection, schedule: Q04DX003 (ip), vehicle: saline.
Where [13] appears, read: dose: 100.0 mg/kg/injection, schedule: Q04DX003 (ip), vehicle: Klucel (hydroxypropylcellulose) (HPC).
Where [14] appears, read: dose: 200.0 mg/kg/injection, schedule: Q04DX003 (ip), vehicle: Klucel (hydroxypropylcellulose) (HPC).
The mark [15] stands for this setting: dose: 400.0 mg/kg/injection, schedule: Q04DX003 (ip), vehicle: Klucel (hydroxypropylcellulose) (HPC).
The mark [16] stands for this setting: dose: 100.0 mg/kg/injection, schedule: Q01DX001 (ip), vehicle: carboxymethylcellulose (CMC).
The mark [17] stands for this setting: dose: 200.0 mg/kg/injection, schedule: Q01DX001 (ip), vehicle: carboxymethylcellulose (CMC).

SMILES strings stand for the structures. Toxic doses and inconclusive results are not listed.

For `Cc1ccc(S(=O)(=O)N/N=C/C(=O)O)cc1`, the T/C reads like this: (dose: 10.0 mg/kg/injection, schedule: Q01DX009 (ip), vehicle: other) 116 % of control; (dose: 15.0 mg/kg/injection, schedule: Q01DX009 (ip), vehicle: other) 118 % of control; (dose: 27.0 mg/kg/injection, schedule: Q01DX009 (ip), vehicle: saline) 158 % of control; (dose: 33.0 mg/kg/injection, schedule: Q01DX009 (ip), vehicle: other) 166 % of control; (dose: 40.0 mg/kg/injection, schedule: Q01DX009 (ip), vehicle: saline) 153 % of control; (dose: 50.0 mg/kg/injection, schedule: Q01DX009 (ip), vehicle: water) 108 % of control. The T/C is, setting by setting: (dose: 75.0 mg/kg/injection, schedule: Q01DX001 (ip), vehicle: saline) 119 % of control; (dose: 90.0 mg/kg/injection, schedule: Q01DX009 (ip), vehicle: saline) 164 % of control; under setting [1], 120 % of control; (dose: 100.0 mg/kg/injection, schedule: Q01DX009 (ip), vehicle: water) 92 % of control; (dose: 112.0 mg/kg/injection, schedule: Q01DX009 (ip), vehicle: other) 97 % of control; (dose: 144.0 mg/kg/injection, schedule: Q04DX003 (ip), vehicle: saline with Tween-80) 97 % of control. Also, the T/C was 116 % of control (dose: 150.0 mg/kg/injection, schedule: Q01DX009 (ip), vehicle: saline with Tween-80); 112 % of control under setting [2]; 107 % of control (dose: 240.0 mg/kg/injection, schedule: Q04DX003 (ip), vehicle: saline with Tween-80); 108 % of control under setting [3]; 117 % of control (dose: 500.0 mg/kg/injection, schedule: Q01DX009 (ip), vehicle: saline with Tween-80).

With `CCOC(=O)C(C#N)c1cccc(C)c1` (configuration not stated), the T/C is 95 % of control under setting [4] and 98 % of control under setting [5].

`c1ccc(-c2nnnn2C23CC4CC(CC(C4)C2)C3)cc1`: the T/C under setting [6] is 98 % of control; the T/C under setting [7] was 100 % of control; the T/C (dose: 400.0 mg/kg/injection, schedule: Q04DX003 (ip), vehicle: saline) is 98 % of control.

Regarding `CCN(CC)CCNc1ccc(CO)c(Cl)c1`, the T/C by setting is: (dose: 31.25 mg/kg/injection, schedule: Q01DX009 (ip), vehicle: Klucel (hydroxypropylcellulose) (HPC)) 92 % of control; (dose: 62.5 mg/kg/injection, schedule: Q01DX009 (ip), vehicle: Klucel (hydroxypropylcellulose) (HPC)) 89 % of control; (dose: 125.0 mg/kg/injection, schedule: Q01DX009 (ip), vehicle: Klucel (hydroxypropylcellulose) (HPC)) 106 % of control.

In the case of `Cc1ccc(NCN2C(=O)NC(c3ccccc3)(c3ccccc3)C2=O)cc1`, the T/C reads like this: (dose: 100.0 mg/kg/injection, schedule: Q01DX001 (ip), vehicle: Klucel (hydroxypropylcellulose) (HPC)) 93 % of control; (dose: 200.0 mg/kg/injection, schedule: Q01DX001 (ip), vehicle: Klucel (hydroxypropylcellulose) (HPC)) 103 % of control; (dose: 400.0 mg/kg/injection, schedule: Q01DX001 (ip), vehicle: Klucel (hydroxypropylcellulose) (HPC)) 92 % of control.

In the case of `CCC(NC)c1ccccc1` (configuration not stated), the T/C runs as follows: (dose: 25.0 mg/kg/injection, schedule: Q04DX002 (ip), vehicle: saline) 104 % of control; under setting [8], 89 % of control; under setting [9], 106 % of control.

With `NC1CC2CCC1C2` (configuration not stated), the T/C is, setting by setting: (dose: 50.0 mg/kg/injection, schedule: Q01DX001 (ip), vehicle: saline with Tween-80) 98 % of control; under setting [8], 93 % of control; (dose: 100.0 mg/kg/injection, schedule: Q01DX001 (ip), vehicle: saline with Tween-80) 98 % of control; under setting [9], 100 % of control; (dose: 200.0 mg/kg/injection, schedule: Q01DX001 (ip), vehicle: saline with Tween-80) 103 % of control.

As for `O=C(O)CCc1nn(-c2ccccc2)c(=O)c2ccccc12`, the T/C reads like this: (dose: 100.0 mg/kg/injection, schedule: Q04DX002 (ip), vehicle: Klucel (hydroxypropylcellulose) (HPC)) 106 % of control; (dose: 200.0 mg/kg/injection, schedule: Q04DX002 (ip), vehicle: Klucel (hydroxypropylcellulose) (HPC)) 95 % of control.

On to `O=[N+]([O-])c1ccc(S(=O)CCCl)c([N+](=O)[O-])c1` (configuration not stated), for which the T/C was 96 % of control under setting [10]; 97 % of control under setting [11]; 100 % of control (dose: 25.0 mg/kg/injection, schedule: Q04DX003 (ip), vehicle: saline with Tween-80); 97 % of control under setting [12].

On to `Cc1ncc(C)c(=O)[nH]1`, for which the T/C is 100 % of control (dose: 44.0 mg/kg/injection, schedule: Q01DX Z (ip), vehicle: saline); 105 % of control (dose: 67.0 mg/kg/injection, schedule: Q01DX Z (ip), vehicle: saline); 105 % of control (dose: 100.0 mg/kg/injection, schedule: Q01DX Z (ip), vehicle: saline); 93 % of control under setting [6]; 91 % of control (dose: 150.0 mg/kg/injection, schedule: Q01DX Z (ip), vehicle: saline); 96 % of control under setting [7].

Turning to `COC(OC)c1nc(SC)[nH]c(=O)c1C[N+](C)(C)C`, the T/C reads like this: under setting [1], 102 % of control; under setting [4], 96 % of control; under setting [2], 92 % of control; under setting [5], 94 % of control; under setting [3], 91 % of control.

`O=C(O)C(Br)CF` (configuration not stated): the T/C was 93 % of control under setting [9]; 97 % of control (dose: 200.0 mg/kg/injection, schedule: Q04DX002 (ip), vehicle: saline); 87 % of control (dose: 400.0 mg/kg/injection, schedule: Q04DX002 (ip), vehicle: saline).

As for `Nc1cc2ccc(S(=O)(=O)O)cc2cc1S(=O)(=O)O`, the T/C reads like this: under setting [13], 100 % of control; under setting [14], 97 % of control; under setting [15], 91 % of control.

Regarding `CC1(C)Cc2ccccc2C(c2nccc3ccccc23)=N1`, the T/C runs as follows: under setting [13], 106 % of control; under setting [14], 118 % of control; under setting [15], 102 % of control.

On to `N#CCCOCC(OCCC#N)C(COCCC#N)OCCC#N` (configuration not stated), for which the T/C (dose: 50.0 mg/kg/injection, schedule: Q01DX001 (ip), vehicle: carboxymethylcellulose (CMC)) is 95 % of control; the T/C under setting [16] is 97 % of control; the T/C under setting [17] is 97 % of control; the T/C (dose: 400.0 mg/kg/injection, schedule: Q01DX001 (ip), vehicle: carboxymethylcellulose (CMC)) was 92 % of control.

For `[Cu+2].[NH-]C(CCC(N)=O)C(=O)O.[NH-]C(CCC(N)=O)C(=O)O` (configuration not stated), the T/C is, setting by setting: under setting [10], 96 % of control; under setting [11], 91 % of control; under setting [12], 100 % of control.

Turning to `COc1ccc(/C=C(\CCCOC(C)=O)[N+](=O)[O-])cc1OC`, the T/C under setting [16] is 104 % of control and the T/C under setting [17] was 101 % of control.

On to `O=[N+]([O-])c1ccc(Oc2ccccc2)c(Cl)c1`, for which the T/C is, setting by setting: (dose: 75.0 mg/kg/injection, schedule: Q01DX009 (ip), vehicle: Klucel (hydroxypropylcellulose) (HPC)) 101 % of control; (dose: 75.0 mg/kg/injection, schedule: Q04DX003 (ip), vehicle: Klucel (hydroxypropylcellulose) (HPC)) 96 % of control; (dose: 150.0 mg/kg/injection, schedule: Q01DX009 (ip), vehicle: Klucel (hydroxypropylcellulose) (HPC)) 108 % of control; (dose: 150.0 mg/kg/injection, schedule: Q04DX003 (ip), vehicle: Klucel (hydroxypropylcellulose) (HPC)) 110 % of control; (dose: 300.0 mg/kg/injection, schedule: Q01DX009 (ip), vehicle: Klucel (hydroxypropylcellulose) (HPC)) 108 % of control; (dose: 300.0 mg/kg/injection, schedule: Q04DX003 (ip), vehicle: Klucel (hydroxypropylcellulose) (HPC)) 93 % of control.
